Measurements as given in patent US20240343762A1, “USE OF PROTON PUMP MODULATOR IN PREPARING REAGENT” (SHANGHAI QUIETD BIOTECHNOLOGY CO. LTD., priority 2021, published 2024).

Key:
[1] = system: APP/PS1 transgenic AD mice; experiment: New object recognition test in APP/PS1 transgenic AD mice; format: in vivo, mouse; conditions: continuously for 1 week, mice of 10 months old
Method: A new object recognition test was carried out by an open field box (40×40×35 cm, made of blue opaque plastic) with reference to a behavior test scheme recorded by Leger, M., et al. Object recognition test in mice. Nat Protoc. 8, 2531-2537 (2013). On the first day, mice were put into the open field box to adapt for 10 min. On the second day, each mouse was lightly put in the center of the box, two similar objects (a battery I) were put in the central area and freely explore for 10 min, and then the mice were sent back to feeding cages. After 3 h, the mice were put back to the box again (one battery was replaced with a doll toy which was 10 cm high) for 10 min to carry out a memory retention test. A video was analyzed by Etho Vision XT 14 software, and the time for exploring new/old objects by the mice was recorded. The discrimination index was computed as (Tnovel−Tfamliar)/(Tnovel+Tfamiliar).
APP/PS1 transgenic mice of 10 months old (purchased from MODEL ORGANISMS) were selected, and equally divided into three groups; the mice were administrated with a PBS buffer solution (group 2), […]

[2] = system: APP/PS1 transgenic AD mice; experiment: Morris water maze test in APP/PS1 transgenic AD mice; format: in vivo, mouse; conditions: continuously for 1 week, mice of 10 months old
Method: Morris water maze referred to the test solutions recorded in Qing-Feng Wu et al., Fibroblast growth factor 13 is a microtubule-stabilizing protein modulating neuronal polarization and migration. Cell. 149, 1549-1564 (2012). The test was carried out in a circular pool filled with water (120 cm in diameter, 30 cm in depth, titanium dioxide was added to make opaque, kept temperature at 21±1° C.) in a room with a fixed environment. The test was divided into an adaptation period (1 day), a training period (5-6 days) and a testing period (1 day). Adaptation period: the platform was placed 0.5 cm above the water surface, and the mice were guided to the platform. Training day: the platform was placed 0.5 cm underwater, and the mice were trained to find the platform. […] Training were performed 4 times a day, 4 times a day (between 8:00 a.m. to 4:00 p.m.), the mice were dropped from different water points each time, each training was performed at interval of at least 30 min, a total of 6 days, and the order of water points was different every day. Test Day: test was performed 24 h after the end of the training day. […] The footage was analyzed with Etho Vision XT 14 software, recording parameters including the escape latency of entering the target quadrant, the number of platform crossings, and the dwell time in the target quadrant. […]

[3] = target: T1, murine ATP6V1B2 full-length protein (Mus musculus, UniProt P62814); experiment: Co-immunoprecipitation of EGFP-tagged QD202 with Myc-tagged ATP6V1B2 full-length protein in 293 cells; format: binding
T1 construct: expressed in transfected cells; host or cells: 293 cells
Source text: (§1) Expression plasmids including murine ATP6V1B2 full-length sequence, 1-286aa truncated sequence or 1-172aa truncated sequence with a Myc tag are respectively constructed; the amino acid sequence of the murine ATP6V1B2 full-length sequence was as set forth in SEQ ID NO. 8, the amino acid sequence of the murine ATP6V1B21-286aa was as set forth in SEQ ID NO. 10; the amino acid sequence of the murine ATP6V1B21-172aa as set forth in as SEQ ID NO. 11; and these plasmids were respectively called as an ATP6V1B2 full-length expression plasmid, an ATP6V1B21-286aa expression plasmid and an ATP6V1B21-172aa expression plasmid. Meanwhile, a QD202 expression plasmid with an EGFP tag was constructed. […]
(§2) Then a Protein G agarose bead was added to be bound to the Myc antibody, so as to precipitate the ATP6V1B2 full-length protein, the 1-286aa truncated sequence or the 1-172aa truncated sequence, and proteins which were bound to one another, and finally the proteins subjected to co-immunoprecipitation was detected by virtue of an immunoblotting method.

[4] = target: ATP6V1B2 (Mus musculus, UniProt P62814); experiment: Co-immunoprecipitation in HEK 293 cells transfected with murine Atp6V1b2 expression plasmid with myc tag; format: binding; set-up: expressed in transfected cells; host or cells: HEK 293; conditions: HEK 293 cell lysate, biotin antibody, immunoblotting
Method: (6) A murine Atp6V1b2 expression plasmid with a myc tag at the 3′ end was constructed; the plasmid was transfected in HEK 293 cells; the cells were collected after 2 days; and cell protein was extracted. The biotin antibody and protein G agarose beads were added into a cell lysis solution for co-immunoprecipitation^[1], and the protein was eluted by the protein loading buffer solution.
(7) SDS-PAGE protein electrophoresis gel was prepared, the concentration of lower-layer separation gel was 10%, and the concentration of upper-layer concentrated gel was 4%; the sample was added into a loading hole; and the protein was detected by an immunoblotting method, with the result shown in FIG. 6b.

[5] = target: T2, murine ATP6V1B2 1-286aa truncated sequence (Mus musculus, UniProt P62814); experiment: Co-immunoprecipitation of EGFP-tagged QD202 with Myc-tagged ATP6V1B2 1-286aa truncated sequence in 293 cells; format: binding; conditions: Myc antibody, immunoblotting
T2 construct: expressed in transfected cells; host or cells: 293 cells
Source text: as §1, §2

T1 sequence (P62814 whole entry): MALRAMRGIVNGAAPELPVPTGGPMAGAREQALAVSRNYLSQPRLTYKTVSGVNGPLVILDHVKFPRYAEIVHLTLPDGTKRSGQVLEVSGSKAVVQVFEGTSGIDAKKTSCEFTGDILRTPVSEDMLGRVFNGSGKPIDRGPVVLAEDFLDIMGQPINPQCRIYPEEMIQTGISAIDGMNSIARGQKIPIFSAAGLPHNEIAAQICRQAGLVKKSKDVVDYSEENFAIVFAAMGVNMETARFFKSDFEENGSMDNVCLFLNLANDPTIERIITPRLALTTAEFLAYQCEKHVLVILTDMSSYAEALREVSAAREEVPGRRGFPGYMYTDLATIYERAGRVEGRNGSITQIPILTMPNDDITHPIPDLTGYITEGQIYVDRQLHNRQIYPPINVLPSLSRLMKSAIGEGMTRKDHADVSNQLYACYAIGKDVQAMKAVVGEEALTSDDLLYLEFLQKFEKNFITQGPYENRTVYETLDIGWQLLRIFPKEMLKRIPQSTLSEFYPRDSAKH
Chain of ATP6V1B2 (P62814 whole entry): as above
T2 sequence (P62814 1-286): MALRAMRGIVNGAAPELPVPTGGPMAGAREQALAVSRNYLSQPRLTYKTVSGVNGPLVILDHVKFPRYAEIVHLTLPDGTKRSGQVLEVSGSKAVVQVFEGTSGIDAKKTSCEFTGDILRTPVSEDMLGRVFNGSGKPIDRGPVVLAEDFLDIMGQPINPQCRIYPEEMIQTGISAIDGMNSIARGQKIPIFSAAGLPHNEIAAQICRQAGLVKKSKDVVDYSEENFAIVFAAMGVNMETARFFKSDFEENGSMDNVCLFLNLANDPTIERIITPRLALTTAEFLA

Q: With “QD202: polypeptide synthesized according to the amino acid sequence as set forth in SEQ ID NO. 1 (YGRKKRRQRRRSPVDVVCS; QD202)” as the substance, how does the “learning and cognitive functions in new object recognition” value ([1]; intragastric, 6.25 mg/kg) read?
A: Its value is “obvious improvement of learning and cognitive functions”.

Q: What about the “learning and cognitive functions in new object recognition” value ([1]; intravenous, 1.25 mg/kg) of the same substance?
A: Its value is “obvious improvement on learning and cognitive functions”.

Q: And the “learning and cognitive functions in water maze behavior” value ([2]; intragastric, 6.25 mg/kg)?
A: Its value is “obvious improvement of learning and cognitive functions”.

Q: What about the “learning and cognitive functions in water maze behavior” value ([2]; intravenous, 1.25 mg/kg) of the same substance?
A: The value was “obvious improvement on learning and cognitive functions”.

Q: What about the “binding to ATP6V1B2 full-length protein by co-immunoprecipitation” value ([3]; 293 cells, Myc antibody, immunoblotting) of the same substance?
A: Its value is “only the full-length ATP6V1B2 protein can be combined”.

Q: What about the “binding site of ATP6V1B2 and QD202” value ([3]; concluded from full-length versus truncated sequences) of the same substance?
A: Its value is 288th amino acid to 512th amino acid.

Q: What about the “binding to ATP6V1B2 protein by co-immunoprecipitation” value [4] of the same substance?
A: Its value is “specific binding between the QD202 and the ATP6V1B2 protein can be found”.

Q: And the “binding to ATP6V1B2 1-286aa truncated sequence by co-immunoprecipitation” value [5]?
A: The value was “only the full-length ATP6V1B2 protein can be combined”.
